In patent US20230149401A1 (priority 2020, published 2023):

Tested on: HIV particles pseudotyped with SARS-CoV-2 S
Format: cell-based

## CCN(CC)CCCC(C)Nc1ccnc2cc(Cl)ccc12 (stereo not shown) [chloroquine, reference compound]
  Entry of pseudotyped SARS-CoV-2 and its μS1/S2 mutant: efficiently blocked entry
